Holding throughout (experiment): Antibacterial activity, ATP assay (BacTiter-Glo)
What all share (format): cell-based

Assay [1] has as its system Enterobacteria (2): Enterobacter aerogenes JCM 1235. As to conditions: ATP assay concentration: peptides 10, TOB 4.0, CPFX 1.0, OX 4.0, MEPM 8.0 μg/ml. The procedure: (§1) That is, using BacTiter-Glo Microbial Cell Viability Assay kit available from PROMEGA, the antibacterial activity of the peptides was evaluated from the viability of bacteria. […] With respect to the strains, Staphylococcus aureus ATCC29213 (S. aureus ATCC29213) as Gram-positive bacteria, or, alternatively, Pseudomonas aeruginosa (P. aeruginosa ATCC27853) as Gram-negative bacteria, was used. The bacteria were cultured in media for 3 to 4 hours, and thereafter absorbances at A600 were measured. Bacterial suspensions were diluted with Mueller-Hinton broth (MHB) according to McFarland #0.5. Each strain was added so as to attain about 0.5−1×10^5 CFU/mL (final concentration) in terms of Escherichia coli. […] A solution to which the peptides were not added was considered as a negative control, and a solution to which tobramycin (TOB) was added was considered as a positive control. […] Relative values were calculated by comparison with the negative control, and these values were regarded as the viability. […] ATP (%) of the antibacterial activity was measured in the same manner as mentioned above, and the “minimum inhibitory concentration (MIC)” was measured as follows. MIC is the lowest concentration of an agent that may inhibit the growth of a bacterium. MIC is used as a parameter for the efficacy of an antibacterial agent, for the strength of bacterial sensitivity, or the like. The bacteria can grow (proliferate) when the concentration is not higher than MIC, and cannot grow when the concentration is higher than MIC. Its measurement is carried out according to a method defined as a standard method by Japanese Society of Chemotherapy or CLINICAL AND LABORATORY […] (CLSI), but, in this Example, its measurement was carried out by a broth microdilution method in accordance with “M100-S17/M7-A7” (Performance Standards for Antimicrobial Susceptibility Testing; Seventeenth Informational Supplement, Vol. 27 No. 1) published by CLSI on January, 2007. That is, sensitivity test of agents was carried out using a microtiter plate or test tubes. With respect to each strain, Escherichia coli: ATCC 25922 (Escherichia coli ATCC 25922), Pseudomonas aeruginosa: ATCC 27853 (Pseudomonas aeruginosa ATCC 27853), Staphylococcus aureus: ATCC29213 (Staphylococcus aureus ATCC29213), Klebsiella pneumoniae: JCM 1662 (Klebsiella pneumoniae JCM 1662), enterobacteria (1): JCM 1232 (Enterobacter cloacae JCM 1232), enterobacteria (2): JCM 1235 (Enterobacter aerogenes JCM 1235), and Staphylococcus epidermidis: JCM 2414 (Staphylococcus epidermidis JCM 2414), were used. […] As the concentrations of the agents in ATP assay, the concentrations as described in the Tables were used.

Assay [2] has as its system Escherichia coli ATCC 25922. The conditions noted are these: ATP assay concentration: peptides 10, TOB 1.0, CPFX 0.015, OX 0.5, MEPM 0.1 μg/ml. As for the experimental part:
as §1

In assay [3] the test system is Klebsiella pneumoniae JCM 1662. As to conditions: ATP assay concentration: peptides 10, TOB 4.0, CPFX 1.0, OX 0.5, MEPM 8.0 μg/ml. As for the experimental part: as §1
The test system of assay [4] is Staphylococcus epidermidis JCM 2414. The conditions noted are these: ATP assay concentration: peptides 10, TOB 1.0, CPFX 0.5, OX 0.5, MEPM 0.125 μg/ml. The procedure:
as §1

In assay [5] the test system is Enterobacteria (1): Enterobacter cloacae JCM 1232. As to conditions: ATP assay concentration: peptides 10, TOB 4.0, CPFX 1.0, OX 4.0, MEPM 8.0 μg/ml. The procedure: That is, using BacTiter-Glo Microbial Cell Viability Assay kit available from PROMEGA, the antibacterial activity of the peptides was evaluated from the viability of bacteria. […] With respect to the strains, Staphylococcus aureus ATCC29213 (S. aureus ATCC29213) as Gram-positive bacteria, or, alternatively, Pseudomonas aeruginosa (P. aeruginosa ATCC27853) as Gram-negative bacteria, was used. The bacteria were cultured in media for 3 to 4 hours, and thereafter absorbances at A600 were measured. Bacterial suspensions were diluted with Mueller-Hinton broth (MHB) according to McFarland #0.5. Each strain was added so as to attain about 0.5−1×10^5 CFU/mL (final concentration) in terms of Escherichia coli. […] A solution to which the peptides were not added was considered as a negative control, and a solution to which tobramycin (TOB) was added was considered as a positive control. […] Relative values were calculated by comparison with the negative control, and these values were regarded as the viability. […] ATP (%) of the antibacterial activity was measured in the same manner as mentioned above, and the “minimum inhibitory concentration (MIC)” was measured as follows. MIC is the lowest concentration of an agent that may inhibit the growth of a bacterium. MIC is used as a parameter for the efficacy of an antibacterial agent, for the strength of bacterial sensitivity, or the like. The bacteria can grow (proliferate) when the concentration is not higher than MIC, and cannot grow when the concentration is higher than MIC. […] (CLSI), but, in this Example, its measurement was carried out by a broth microdilution method in accordance with “M100-S17/M7-A7” (Performance Standards for Antimicrobial Susceptibility Testing; Seventeenth Informational Supplement, Vol. 27 No. 1) published by CLSI on January, 2007. That is, sensitivity test of agents was carried out using a microtiter plate or test tubes. With respect to each strain, Escherichia coli: ATCC 25922 (Escherichia coli ATCC 25922), Pseudomonas aeruginosa: ATCC 27853 (Pseudomonas aeruginosa ATCC 27853), Staphylococcus aureus: ATCC29213 (Staphylococcus aureus ATCC29213), Klebsiella pneumoniae: JCM 1662 (Klebsiella pneumoniae JCM 1662), enterobacteria (1): JCM 1232 (Enterobacter cloacae JCM 1232), enterobacteria (2): JCM 1235 (Enterobacter aerogenes JCM 1235), and Staphylococcus epidermidis: JCM 2414 (Staphylococcus epidermidis JCM 2414), were used. […] As the concentrations of the agents in ATP assay, the concentrations as described in the Tables were used.

Take `NC[C@H]1O[C@H](O[C@H]2[C@H](O)[C@@H](O[C@H]3O[C@H](CO)[C@@H](O)[C@H](N)[C@H]3O)[C@H](N)C[C@@H]2N)[C@H](N)C[C@@H]1O` [TOB, tobramycin, reference compound]: the “ATP (%) mean, Enterobacteria (2)” value in assay [1] came to 0.5%. Also, the “ATP (%) mean, Escherichia coli” value in assay [2] came to 3.8%. Besides, in assay [3], the “ATP (%) mean, Klebsiella pneumoniae” value was 3.8%. Moreover, the “ATP (%) mean, Staphylococcus epidermidis” value in assay [4] was found to be 4.2%. Also, the “ATP (%) mean, Enterobacteria (1)” value in assay [5] was found to be 3.0%.

(Values after patent US9376470B2, “Polypeptide having angiogenesis-inducing activity and antibacterial activity, and use thereof for medical purposes” (FunPep Inc., priority 2008, dated 2016).)
